Patent US20190314256A1, “COSMETIC BASE INCLUDING AMIDE ALCOHOL ESTER, AND COSMETIC” (Kokyu Alcohol Kogyo Co., Ltd., priority 2016, published 2019)

How the values were obtained:
Assay type in all cases: physicochemical
[1] = Solubility and gelling ability with each liquid; critical gelation concentration by sample tube inversion method; details: physical form of the ester
[2] = as above; set-up: key: S: Soluble; I: Insoluble/separation; G: Gel; T: Thickening; EG: Emulsion gel
Experimental: The amide alcohol or ester of amide alcohol was heated and mixed with each liquid, and the critical gelation concentration was measured by sample tube inversion method.
Sample tube used: used tube: Maruemu screw tube No. 7 (trunk diameter 35 mm total length 78 mm)

Viscosity = experiment: Viscosity
[3] = Pigment dispersibility (wet point WP and flow point FP); details: titanium oxide, zinc oxide, iron oxide
Text: 1. Weigh 1.5 g of a pigment in mortar. 2. Gradually add an oil dropwise and knead with a pestle. 3. Check the weight of the oil at each point of WP and FP. 4. Calculate WP and FP per 100 g of the pigment. WP: Wet point (the lower the wet point, the better the wettability of the pigment.) FP: Flow point (the lower the flow point, the better the dispersibility of the pigment.)

CCCCCCCCCCCC(=O)OCCCC(=O)NC1CCCCC1 [CHBA-L, N-cyclohexylbutyramide-4-lauric acid ester]
Property [1]: Solid | solubility and gelling ability ([2]; Ethanol): S | solubility and gelling ability ([2]; Glycerin): I | solubility and gelling ability ([2]; Octyldodecanol): G | solubility and gelling ability ([2]; Octyldodecyl myristate): G | solubility and gelling ability ([2]; Squalane): G | solubility and gelling ability ([2]; Triethylhexanoin): G | solubility and gelling ability ([2]; Water): I

CCCCCCCCCCCC(=O)OCCCC(=O)NCC(CC)CCCC (centres unmarked) [EHBA-L, N-2 ethylhexylbutyramide-4-lauric acid ester]
Property [1]: Solid | solubility and gelling ability ([2]; Ethanol): S | solubility and gelling ability ([2]; Glycerin): I | solubility and gelling ability ([2]; Octyldodecanol): S | solubility and gelling ability ([2]; Octyldodecyl myristate): S | solubility and gelling ability ([2]; Squalane): I | solubility and gelling ability ([2]; Triethylhexanoin): I | solubility and gelling ability ([2]; Water): I

CCCCCCCCCCCCNC(=O)CCCOC(=O)CCCCCCCCCCC [LBA-L, N-laurylbutyramide-4-lauric acid ester]
Property [1]: Solid | solubility and gelling ability ([2]; Ethanol): G | solubility and gelling ability ([2]; Glycerin): I | solubility and gelling ability ([2]; Octyldodecanol): G | solubility and gelling ability ([2]; Octyldodecyl myristate): G | solubility and gelling ability ([2]; Squalane): G | solubility and gelling ability ([2]; Triethylhexanoin): G | solubility and gelling ability ([2]; Water): I

CCCCCCCCCCCCCC(=O)OCCCC(=O)NCCCCCCCCCCCC [LBA-M, N-laurylbutyramide-4-myristic acid ester]
Property [1]: Solid | solubility and gelling ability ([2]; Ethanol): G | solubility and gelling ability ([2]; Glycerin): I | solubility and gelling ability ([2]; Octyldodecanol): G | solubility and gelling ability ([2]; Octyldodecyl myristate): G | solubility and gelling ability ([2]; Squalane): G | solubility and gelling ability ([2]; Triethylhexanoin): G | solubility and gelling ability ([2]; Water): I

CCCCCCCCCCCC(=O)OCCCC(=O)NCCCCCCCC [OBA-L, N-octylbutyramide-4-lauric acid ester]
Property [1]: Solid | solubility and gelling ability ([2]; Ethanol): S | solubility and gelling ability ([2]; Glycerin): I | solubility and gelling ability ([2]; Octyldodecanol): G | solubility and gelling ability ([2]; Octyldodecyl myristate): G | solubility and gelling ability ([2]; Squalane): G | solubility and gelling ability ([2]; Triethylhexanoin): G | solubility and gelling ability ([2]; Water): I

N-2 ethylhexylbutyramide 4-isostearic acid ester [EHBA-IS]
viscosity (Viscosity): approximately 270 mPa·s | pigment dispersibility [3]: excellent pigment dispersibility

N-cyclohexylbutyramide-4-isostearic acid ester [CHBA-IS]
viscosity (Viscosity): approximately 230 mPa·s | pigment dispersibility [3]: excellent pigment dispersibility
